Tests used:
C57BL/6J male mice [1] = assay: TUNEL staining of mouse myocardium (cardiomyocyte apoptosis); type: in vivo; settings: pretreatment before doxorubicin
Procedure: (§1) Recombinant human GDF15/MIC-1 protein (CHO-derived) was purchased from PeproTech Inc. (Cranbury, USA) and described in Example 1. […] For in vitro studies, solid lyophilized powder of these two drugs were solubilized at the recommended concentrations in sterile water, and separate aliquots were made and frozen until thawing prior to addition to cell cultures. For in vivo studies, all agents were dissolved in […] normal saline according to the required concentrations (doxorubicin, 5 mg/kg; GDF15, 0.5 mg/kg; dexrazoxane, […]), and the final volume of each intraperitoneal injection was 100 μl. The recommended dose ratio of dexrazoxane to doxorubicin was 10 to 1. In the following examples, 5 mg/kg of doxorubicin was used which correspond to 50 mg/kg of dexrazoxane. The FDA recommends that dexrazoxane be injected within 0.5 hour prior to doxorubicin infusion in individuals. This was followed in the same manner when applying to the test animals.
(§2) To induce cardiotoxicity in the mouse, four weekly intraperitoneal injections of doxorubicin at 5 mg/kg were administered. After one dose of doxorubicin at 5-6 mg/kg in a mouse, the level of exposure has been estimated to be similar to that of a human individual being given a standard dose of doxorubicin at approximately 60 mg/m^2. […]

C57BL/6J male mice [2] = type: in vivo, mouse; settings: mice; pretreatment before doxorubicin, versus doxorubicin only
Procedure: as §1, §2
The image processing and analysis software, ImageJ version 1.53K, was used for evaluation of histopathology from mouse experiments. For Masson's trichrome staining, the acquired images were converted from color to grayscale using ImageJ, the blue-stained collagen were segmented (separated) using thresholding, and the threshold areas in a representative microscopic field were quantified. […] Cells containing brown staining (TUNEL-positive cells) were counted in a representative microscopic field for each mouse in each group.

C57BL/6J male mice [3] = assay: Noninvasive blood pressure in mouse doxorubicin cardiotoxicity model; type: in vivo; settings: for Day 28 DBP / Day 28 SBP: after doxorubicin 5 mg/kg intraperitoneal once weekly for four weeks (Dox + groups); for Day 28 DBP / Day 28 SBP / Day 0 DBP / Day 0 SBP: n = 4 per group; for Day 0 DBP / Day 0 SBP: before doxorubicin administration
Text: Recombinant human GDF15/MIC-1 protein (CHO-derived) was purchased from PeproTech Inc. (Cranbury, USA) and described in Example 1. […] PubChem identifier number 71384) were purchased from Abcam (Cambridge, UK). For in vitro studies, solid lyophilized powder of these two drugs were solubilized at the recommended concentrations in sterile water, and separate aliquots were made and frozen until thawing prior to addition to cell cultures. […] The recommended dose ratio of dexrazoxane to doxorubicin was 10 to 1. In the following examples, 5 mg/kg of doxorubicin was used which correspond to 50 mg/kg of dexrazoxane. The FDA recommends that dexrazoxane be injected within 0.5 hour prior to doxorubicin infusion in individuals. This was followed in the same manner when applying to the test animals. Ten- to twelve-week old C57BL/6J male mice were purchased from the Laboratory Animal Services Centre of CUHK. They were maintained in specific pathogen-free facility of the CUHK Laboratory Animal Services Centre Research Unit at Prince of Wales Hospital with free access to food and water and maintained in a light/night cycle of 12 hours/12 hours. All mice were fed a standard diet. Blood pressure of animals was measured using the noninvasive CODA® High Throughput System (Torrington, USA) in accordance with the manufacturer's instructions. Measurement platform was prewarmed and maintained at 33-35° C. O-cuffs and VPR-cuffs were used as instructed. Blood pressure of each mouse was measured for at least three cycles. Mice were released and returned to their cages immediately after measurement. Blood pressure was measured twice, once at the beginning of the experiment and once before sacrifice. To induce cardiotoxicity in the mouse, four weekly intraperitoneal injections of doxorubicin at 5 mg/kg were administered. After one dose of doxorubicin at 5-6 mg/kg in a mouse, the level of exposure has been estimated to be similar to that of a human individual being given a standard dose of doxorubicin at approximately 60 mg/m^2.

hESC-CMs = assay: α-actinin immunostaining for sarcomeric integrity; type: cell-based, human; settings: hESC-CMs; agent only, no doxorubicin
Procedure: hESC-CMs were permeabilized using 0.1% Triton X-100 (Thermo Fisher Scientific, USA). After permeabilizing for 15 minutes, cells were washed three times in PBS, and further permeabilization was blocked by incubating cells in PBS with 10% FBS (Hyclone, USA) for 1 hour at room temperature. Cells were incubated with the primary anti-actinin antibody (1:400) (Abcam, UK) and diluted in PBS with 10% FBS overnight. Cells were then washed three times with PBS and incubated with a goat anti-mouse IgG1 secondary antibody (1:1000 diluted in PBS with 10% FBS) (Thermo Fisher Scientific, USA) for 1 hour at room temperature. Finally, cells were washed twice with PBS and mounted using ibidi mounting medium with DAPI (Ibidi, Germany). Microscopic images were acquired using the DMi8s Research Inverted Thunder Imager Live Cell System (Leica, Germany) at 20×, 40×, and 100× magnification.

C57BL/6J male mice [4] = type: in vivo, mouse; settings: mice; pretreatment before doxorubicin
Procedure: as §1
To induce cardiotoxicity in the mouse, four weekly intraperitoneal injections of doxorubicin at 5 mg/kg were administered. After one dose of doxorubicin at 5-6 mg/kg in a mouse, the level of exposure has been estimated to be similar to that of a human individual being given a standard dose of doxorubicin at approximately 60 mg/m^2. Previous studies have shown that mice injected with doxorubicin once a week at 5 mg/kg for four weeks developed cardiotoxicity, as evidenced by decreased ventricular ejection fraction, cardiomyocyte apoptosis, histopathological changes consistent with doxorubicin-induced myocardial damage, and increased mortality rate, compared with the control group.
The hearts of mice were collected after sacrifice and fixed in 4% paraformaldehyde overnight, followed by paraffin embedding. Afterwards the hearts were cut into 4 μm thick slices. Sections were deparaffinized and rehydrated using sequential immersion in 100% alcohol, 95% alcohol and 70% alcohol for 15 minutes each. […]

## C[C@@H](CN1CC(=O)NC(=O)C1)N1CC(=O)NC(=O)C1.Cl [Dex, 4,4′-[(1S)-1-Methyl-1,2-ethanediyl]bis-2,6-piperazinedione hydrochloride, reference compound]
C57BL/6J male mice [1]
  cardiomyocyte death by apoptosis (TUNEL staining): reduced extent of cardiomyocyte death by apoptosis
C57BL/6J male mice [2]
  cardiac fibrosis (Masson's trichrome): visually and quantitatively reduced
C57BL/6J male mice [3]
  Day 28 DBP: 84 ± 15 mmHg
  Day 28 SBP: 108 ± 13 mmHg
  Day 0 DBP: 78 ± 26 mmHg
  Day 0 SBP: 114 ± 14 mmHg
hESC-CMs
  sarcomere structure (α-actinin immunostaining): well-organized, striated sarcomeres
C57BL/6J male mice [4]
  myocardial histopathology (hematoxylin and eosin): similarly improved

B1: GDF15 + Dox: mice given recombinant human GDF15 pretreatment followed by doxorubicin (protein, UniProt Q99988 195-308, looked up)
Growth/differentiation factor …: ARARNGDHCPLGPGRCCRLHTVRASLEDLGWADWVLSPREVQVTMCIGACPSQFRAANMHAQIKTSLHRLKPDTVPAPCCVPASYNPMVLIQKTDTGVSLQTYDDLLAKDCHCI
modifications: given with doxorubicin
C57BL/6J male mice [3]; Day 28
  systolic and diastolic blood pressures compared with Dex+Dox group: lower than that of Dex+Dox treatment group
C57BL/6J male mice [3]
  Day 28 DBP: 85 ± 13 mmHg
  Day 28 SBP: 111 ± 15 mmHg
  Day 0 DBP: 76 ± 25 mmHg
  Day 0 SBP: 108 ± 27 mmHg

— patent US12209112B2, “Methods of preventing or treating diseases, conditions, or disorders associated with chemotherapy” (The Chinese University of Hong Kong, priority 2022, dated 2025)
